# Source: US20040259766A1, “Use of glutamate, glutamate derivatives or metabolites, glutamate analogues or mixtures thereof for the manufacture of a composition for the treatment of osteoporosis” (priority 2004, published 2004)
# Like-named read-outs stand apart in the source and are kept apart here. Marks after values point to notes of the source that are not given here. Residues, ends and D or L forms follow the SMILES beside them.
# Assays:
# [1] = test system: humerus and femur; assay: Three point bending test (Instron 4302) of humerus and femur of piglets given Ala-Gln or AKG orally; assay type: in vivo, pig; details: piglets at 35 days of postnatal life; 0.4 g/kg b.w. oral once a day; mean ± SEM
# Protocol: (§1) All piglets suckled sow milk before weaning. After weaning at the age of 28 days piglets were fed ad libitum with a standard mixture Premix prestarter (PP) (Food plant-Motycz, Poland) and free access to water was allowed. Piglets were allotted to three experimental trials:
# (§2) 2—Second group, receiving 0.4 g/kg/b.w. of L-alanyl-L-glutamine (ala-gin), (2 ml solution/kg b.w.)
# (§3) At the age of 35 days, piglets were sacrificed, eviscerated and bones were sampled.
# (§4) Using Instron 4302 apparatus and applying three point bending test as presented in FIG. 1, the following properties of the bones were determined from curves showing the relation between load and deflection: […]
# [2] = test system: ribs; assay: Architectural and geometric properties of ribs of piglets; assay type: in vivo, pig; details: piglets at 35 days of postnatal life; 0.4 g/kg b.w. oral once a day; mean ± SEM
# Protocol: as §1, §2, §3
# (§5) Architectural and geometric properties of bone were estimated based on measurements of horizontal and vertical cross section as well as interior and exterior diameter of the bone.
# (§6) Mean relative wall thickness (MRWT) expresses the ratio of wall to lumen measures and serves as an indicator in the process of architectural adaptation of bone to physiological stress during the growth of the body. When the lumen increases with unchanged wall thickness the MRWT decreases but bone resistance to strain increases.
# [3] = test system: humerus and femur; assay: Architectural and geometric properties of humerus and femur of piglets; assay type: in vivo, pig; details: piglets at 35 days of postnatal life; 0.4 g/kg b.w. oral once a day; mean ± SEM
# Protocol: as §1, §2, §3, §5, §6
# [4] = Gain of bodyweight of piglets during postnatal life; assay type: in vivo, pig
# Protocol: as §1, §2, §3
# [5] = test system: ribs; assay: Three point bending test (Instron 4302) of ribs of piglets given Ala-Gln or AKG orally; assay type: in vivo, pig
# Protocol: as §1, §2, §3, §4
# [6] = test system: femur; assay: Femur bone mineral density in intact, shame operated and ovariectomized rats given AKG in drinking water; assay type: in vivo, Wistar rat; details: in all three groups (INT, SHO, OVX); 60 days of drinking water with AKG; p<0.01 in all groups
# Description: 60 female Wistar rats at the age of 2 months and with an initial bodyweight of 200 g are used.
# The rats are divided into three groups (n=20), where Group 1 is shame operated, Group 2 is ovariectomized and Group 3 is intact, i.e. not operated at all.
# 20 of the rats are shame-operated (SHO), where the ovaries are exteriorised and replaced intact.
# The second group of ovariectomized rats (OVX) are submitted to ovariectomy from a dorsal approach.
# Six months after ovariectomy, the animals from group 1 and 2, are divided into two additional sub-groups; one placebo and one experimental group.
# After 60 days with placebo and experimental drinking water the rats are anaesthetised in CO2 and femur isolated for further analysis of bone mineral density.
# [7] = test system: right femur; assay: Bone mineral density (DEXA) of the right femur of piglets; assay type: in vivo, pig; details: right femur proximal and distal metaphysis, 21 and 35 days (FIG. 17, 18)
# Protocol: (§7) Bone mineral density (BMD) was analysed by DEXA (Dual Energy X-ray Absorptiometry) using LUNAR apparatus.
# [8] = test system: ulna bone; details: group A, 0.8 g/kg body weight oral
# Protocol: During general anesthetic surgery, the ulnar is broken and optionally denervated. On the first day after operation saline, AKG or Ala-Gln is administered orally at a dose of 0.8 g/kg body weight in 2 ml.
# After the experimental period, the turkeys will be weighed and sacrified in order to measure bone mineral density (BMD).
# as §7
# [9] = piglets at 35 days of postnatal life, 0.4 g/kg b.w. oral once a day, mean ± SEM
smiles,measurement,setting,value
"C[C@H](N)C(=O)N[C@@H](CCC(N)=O)C(=O)O [Ala-Gln, L-alanyl-L-glutamine, reference compound] (H-Ala-Gln-OH)",Bone maximum elastic strength (Wy) femur,[1],1016.8 ± 46.68 N
same,Bone maximum elastic strength (Wy) humerus,[1],638.7 ± 9.91 N
same,Bone ultimate strength (Wf) humerus,[1],743.0 ± 15.71∇ N
same,MRWT (ribs 4-9),[2],0.70 ± 0.038
same,Mean relative wall thickness (MRWT) femur,[3],0.88 ± 0.12
same,Mean relative wall thickness (MRWT) humerus,[3],0.64 ± 0.07
same,Second moment of inertia (Ix) humerus,[3],368.4 ± 24.31* mm^4
same,Bodyweight difference (control group less than Ala-Gln treated group),"[4]; day 14, 0.4 g/kg b.w. oral",about 690 g
same,Bodyweight difference (control group less than Ala-Gln treated group),"[4]; day three, 0.4 g/kg b.w. oral",about 96 g
"O=C(O)CCC(=O)C(=O)O [AKG, alpha-ketoglutaric acid]",Bone maximum elastic strength (Wy) femur,[1],1042.9 ± 73.66 N
same,Bone maximum elastic strength (Wy) humerus,[1],726.0 ± 37.73 N
same,Bone ultimate strength (Wf) femur,[1],1123.0 ± 75.09 N
same,Bone ultimate strength (Wf) humerus,[1],857.6 ± 45.42 N
same,Cross sectional area (A) (ribs 4-9),[2],10.52 ± 0.35* mm^2
same,MRWT (ribs 4-9),[2],0.60 ± 0.026
same,Second moment of inertia (ribs 4-9),[2],15.42 ± 0.93* mm^4
same,Cross-sectional area (A) femur,[3],64.7 ± 3.82* mm^2
same,Cross-sectional area (A) humerus,[3],52.7 ± 4.1* mm^2
same,Second moment of inertia (Ix) femur,[3],696.5 ± 48.7* mm^4
same,Second moment of inertia (Ix) humerus,[3],459.4 ± 59.42* mm^4
same,Yielding stress of the 5th rib,"[5]; 35-days-old piglets, versus control, FIG. 11",significant increase
same,Bone maximum elastic strength (Wy) (ribs 4-9),[5]; [9],522.5 ± 17.97 N
same,Moment of ultimate strength ribs (4-9),[5]; [9],737.445 ± 23.85 N
same,Ultimate strength (Wf) (ribs 4-9),[5]; [9],585.1 ± 18.5 N
same,Bodyweight of the piglets versus control group and Ala-Gln group,[4]; p>0.01 in comparison to Ala-Gln as printed,more dramatic
same,"BMD, difference between AKG treated rats and placebo treated rats",[6],about 10%
same,Bone mineralization versus piglets receiving placebo,[7],higher
same,"BMD of the ulna bone, difference compared to saline treated turkeys","[8]; left wing control (intact), p<0.01",25%
same,"BMD of the ulna bone, difference compared to saline treated turkeys","[8]; right wing experimental (neurectomized, fracture of the ulnae), p<0.055",about 11%
